Test results published in patent US20100234315A1, “COMPOSITIONS AND METHODS FOR TREATING PSYCHIATRIC AND […]” (priority 2009, published 2010).

Assays:
[1] = system: spontaneously hypertensive rats (SHR); assay: Open-field locomotor activity (beam breaks, rearing) in SHR rats; assay type: in vivo, rat
Procedure: (§1) The effects of Protoveratrine B (PVB) on locomotor activity were determined using an open-field apparatus (High Density Cage Rack System; Kent Scientific Corporation). Adult spontaneously hypertensive rats (SHR) and adult Wistar Kyoto rats (WKY) were purchased from Charles River Laboratories. […] Sessions lasted 30-minutes and were separated by at least one day to diminish the likelihood of habituation to the apparatus. Three doses of PVB were investigated based upon the blood-pressure phase of the study: 0.01, 0.02 & 0.04 mg/kg.
(§2) The number of beam breaks was averaged across subjects and into 30-s bins. The upper panel represents the WKY control rats (N=8); the bottom panel represents the SHR rats (N=8). The different plots represent the baseline and different doses of PVB. Several details can be gleaned from the data. […] Second, activity levels in the SHRs appear to drop off precipitously throughout the session and eventually converge with the activity levels seen in the WKYs.
(§3) To better comprehend the effects of dose on locomotor activity, a dose-response graph was constructed for each rat strain. To construct these graphs, the number of beam breaks that occurred in the first thirty bins (first 15 min) of all rats within a strain was averaged and plotted as a function of dose. The resulting graphs, shown in FIG. 2, represent the effects of PVB on activity within the first 15 minutes post injection.
(§4) Another measure of activity level is rearing (measured by beam breaks of an infrared plane approximately 5″ above the floor of the chamber). Rearing data were analyzed in the same way as the horizontal beam breaks. The results are illustrated in FIG. 3. […] Unlike the horizontal activity, rearing activity in SHRs was decreased by the 0.01 mg/kg dose.

Wistar Kyoto rats (WKY) = assay: Open-field locomotor activity (beam breaks, rearing) in WKY rats; assay type: in vivo, rat
Procedure: as §1, §2, §3, §4

SMILES: CC[C@@H](C)C(=O)O[C@H]1[C@H](O)[C@H]2[C@@H](CN3C[C@@H](C)CC[C@H]3[C@@]2(C)O)[C@@H]2C[C@]34O[C@]5(O)[C@@H](OC(=O)[C@](C)(O)[C@@H](C)O)CC[C@@]3(C)[C@@H]5[C@@H](OC(C)=O)[C@@H](OC(C)=O)[C@H]4[C@@]21O (stereo in doubt) [PVB, Protoveratrine B]
- activity level (beam breaks) vs baseline ([1]; 0.01 mg/kg i.p., FIG. 1): did not affect activity
- rearing activity at lowest dose ([1]; 0.01 mg/kg i.p., FIG. 3): decreased
- activity level, largest dose compared with lowest dose ([1]; 0.04 mg/kg vs 0.01 mg/kg i.p., FIG. 1): greater decrease in activity
- mean rearing, first 30 bins ([1]; 0.01-0.04 mg/kg i.p., FIG. 3): reduced rearing
- mean number of beam breaks, first thirty bins (first 15 min) ([1]; dose-response 0.01-0.04 mg/kg i.p., FIG. 2): reduced the mean number of beam breaks
- average activity level (number of beam breaks) as a function of time ([1]; i.p., 0.01-0.04 mg/kg, first half of 30-min session, FIG. 1): decreased activity levels
- mean number of beam breaks, first 15 min, lowest dose ([1]; lowest dose (0.01 mg/kg) i.p., FIG. 2): no activity-decreasing effect
- relative potency between strains (Wistar Kyoto rats (WKY); WKY vs SHR, from dose-response functions, FIG. 2): slightly more potent in WKY than in SHR rats
- mean number of beam breaks, first 15 min, largest dose, WKY compared with SHR (Wistar Kyoto rats (WKY); WKY vs SHR, largest dose (0.04 mg/kg) i.p., FIG. 2): greater reduction in activity levels
- activity level (beam breaks) vs baseline (Wistar Kyoto rats (WKY); WKY, 0.01 mg/kg i.p., FIG. 1): reduced activity from baseline
- activity level, largest dose compared with lowest dose (Wistar Kyoto rats (WKY); WKY, 0.04 mg/kg vs 0.01 mg/kg i.p., FIG. 1): greater decrease in activity
- mean rearing, first 30 bins (Wistar Kyoto rats (WKY); WKY, 0.01-0.04 mg/kg i.p., FIG. 3): reduced rearing
- mean number of beam breaks, first thirty bins (first 15 min) (Wistar Kyoto rats (WKY); WKY, dose-response 0.01-0.04 mg/kg i.p., FIG. 2): reduced the mean number of beam breaks
- average activity level (number of beam breaks) as a function of time (Wistar Kyoto rats (WKY); WKY, i.p., 0.01-0.04 mg/kg, first half of 30-min session, FIG. 1): decreased activity levels
- mean number of beam breaks, first 15 min, lowest dose (Wistar Kyoto rats (WKY); WKY, lowest dose (0.01 mg/kg) i.p., FIG. 2): affected by the lowest dose
